# Data reported in patent US20110092476A1, “Bicycloheteroaryl compounds as P2X7 modulators and uses thereof” (Renovis, Inc., priority 2006, published 2011).
# Where two headings read alike, the source gives them in different places.
# Assays:
# P2X7 receptor = target: T1, P2X7 receptor (Homo sapiens, UniProt Q99572); assay: IL-1β release assay in differentiated THP-1 cells stimulated with BzATP (Example 9); format: cell-based; details: BzATP 250 uM; for inhibition at 0.3 µM / inhibition at 0.1 µM: differentiated THP-1 cells, read-out: IL-1β % Inhib. @ 0.3 or 0.1 uM; for IC50: THP-1 cells, IL-1β by ELISA
# T1 construct: host or cells: THP-1 cells differentiated with LPS and IFN-γ
# T1 sequence (Q99572 1-595): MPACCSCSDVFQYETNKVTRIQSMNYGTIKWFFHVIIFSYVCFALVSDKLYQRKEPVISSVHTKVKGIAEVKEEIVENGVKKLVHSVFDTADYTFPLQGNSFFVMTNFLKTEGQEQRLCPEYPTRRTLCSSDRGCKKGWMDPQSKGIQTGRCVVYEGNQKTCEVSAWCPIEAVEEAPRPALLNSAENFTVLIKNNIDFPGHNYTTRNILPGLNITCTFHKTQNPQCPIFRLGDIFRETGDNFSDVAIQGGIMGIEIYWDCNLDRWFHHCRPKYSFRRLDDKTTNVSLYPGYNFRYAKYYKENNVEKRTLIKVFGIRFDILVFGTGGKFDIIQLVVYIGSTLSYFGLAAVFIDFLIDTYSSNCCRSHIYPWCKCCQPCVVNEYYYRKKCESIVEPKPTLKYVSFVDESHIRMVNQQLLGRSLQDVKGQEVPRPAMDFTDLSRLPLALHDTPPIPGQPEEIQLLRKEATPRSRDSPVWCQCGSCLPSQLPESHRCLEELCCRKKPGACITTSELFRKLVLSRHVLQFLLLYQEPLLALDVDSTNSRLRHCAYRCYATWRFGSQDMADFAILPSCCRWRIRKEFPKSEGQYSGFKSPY
# Outline: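 THP-1 cells differentiated 16 h with 100 ng/mL LPS and 100 ng/mL IFN-γ, primed 2 h with fresh LPS, pretreated 30 min with compound, then stimulated 45 min with 250 uM BzATP (final). Supernatant IL-1β measured by ELISA; background-adjusted percent inhibition fitted to a four-parameter logistic for IC50.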
# [1] = Determination of aqueous (kinetic) solubility; format: physicochemical; details: aqueous buffer, kinetic from dmso stock, buffer pH 7.4
# Procedure: The mixture was vortexed for 1 hour and equilibrated overnight at room temperature. The mixture was filtered through a saturated filter and the filtrate was analyzed by LC/MS/MS.
# For the purpose of Table 5, solubility of each compound is expressed as follows: […]
smiles,measurement,setting,value
Cc1ccc2c(=O)n([C@H](C)CO)ccc2c1NC(=O)Cc1ccc(C(F)(F)F)cc1 [Compound 397],inhibition at 0.3 µM,"P2X7 receptor; 0.3 μM compound, ""+"" symbols",> 76%
same,IC50,P2X7 receptor,65.1 nM
same,solubility,[1],51 to 75 µM
CC(C(=O)Nc1cccc2c(=O)n([C@H](C)C(N)=O)ccc12)c1cccc(C(F)(F)F)c1F (stereo partly shown) [Compound 337],inhibition at 0.3 µM,"P2X7 receptor; 0.3 μM compound, ""+"" symbols",> 76%
same,solubility,[1],< 25 µM
"CC(C)[C@H](C(N)=O)n1ccc2c(NC(=O)[C@H](C)c3ccc(Cl)cc3)cccc2c1=O [Compound 284, (R)-2-{5-[(R)-2-(4-Chloro-phenyl)-propionylamino]-1-oxo-1H-isoquinolin-2-yl}-3-methyl-butyramide]",inhibition at 0.3 µM,"P2X7 receptor; 0.3 μM compound, ""+"" symbols",> 76%
same,solubility,[1],> 75 µM
"NC(=O)Cn1ccc2c(NC(=O)Cc3ccc(Cl)c(C(F)(F)F)c3)cccc2c1=O [Compound 249, 2-{5-[2-(4-Chloro-3-trifluoromethyl-phenyl)-acetylamino]-1-oxo-1H-isoquinolin-2-yl}-acetamide]",inhibition at 0.3 µM,"P2X7 receptor; 0.3 μM compound, ""+"" symbols",> 76%
same,solubility,[1],< 25 µM
C[C@H](C(N)=O)n1ccc2c(NC(=O)Cc3ccc(F)c(Br)c3)cccc2c1=O [Compound 307],inhibition at 0.3 µM,"P2X7 receptor; 0.3 μM compound, ""+"" symbols",> 76%
same,solubility,[1],< 25 µM
C[C@H](C(N)=O)n1ccc2c(NC(=O)Cc3ccc(F)c(C(F)(F)F)c3)cccc2c1=O [Compound 304],inhibition at 0.3 µM,"P2X7 receptor; 0.3 μM compound, ""+"" symbols",> 76%
same,solubility,[1],< 25 µM
O=C(Cc1ccc(Cl)cc1Cl)Nc1cccc2c(=O)n(CCO)ccc12 [Compound 69],inhibition at 0.3 µM,P2X7 receptor; 0.3 μM compound (symbols +),> 76%
same,solubility,[1],< 25 µM
CC(C)[C@H](C(N)=O)n1ccc2c(NC(=O)[C@@H](C)c3ccc(Cl)cc3)cccc2c1=O [Compound 283],inhibition at 0.3 µM,"P2X7 receptor; 0.3 μM compound, ""+"" symbols",> 76%
same,solubility,[1],> 75 µM
CC(C)(O)Cn1ccc2c(NC(=O)c3cccc4ccccc34)cccc2c1=O [Compound 204],inhibition at 0.1 µM,"P2X7 receptor; 0.1 μM compound, ""*"" symbols",0 to 25%
"CC(C)[C@H](C(=O)O)n1ccc2c(NC(=O)[C@@H](C)c3ccc(Cl)cc3)cccc2c1=O [Compound 323, (R)-2-{5-[(S)-2-(4-Chloro-phenyl)-propionylamino]-1-oxo-1H-isoquinolin-2-yl}-3-methyl-butyric acid]",inhibition at 0.3 µM,"P2X7 receptor; 0.3 μM compound, ""+"" symbols",51 to 75%
C[C@H](C(N)=O)n1ccc2c(NC(=O)Cc3ccc(Cl)cc3C(F)(F)F)cccc2c1=O [Compound 241],inhibition at 0.3 µM,"P2X7 receptor; 0.3 μM compound, ""+"" symbols",> 76%
CC(O)Cn1ccc2c(NC(=O)c3ccccc3Cl)cccc2c1=O (stereo not shown) [Compound 136],inhibition at 0.1 µM,P2X7 receptor; 0.1 μM compound (symbols *),0 to 25%
Cc1ccc(C)c(C(=O)Nc2cccc3c(=O)n(CC(C)O)ccc23)c1 (stereo not shown) [Compound 142],inhibition at 0.1 µM,P2X7 receptor; 0.1 μM compound (symbols *),0 to 25%
"CNC(=O)[C@@H](CO)n1ccc2c(NC(=O)C(C)c3ccc(Cl)c(Cl)c3)cccc2c1=O (stereo partly drawn) [Compound 270, (R)-2-{5-[2-(3,4-Dichloro-phenyl)-propionylamino]-1-oxo-1H-isoquinolin-2-yl}-3-hydroxy-N-methyl-propionamide]",inhibition at 0.3 µM,"P2X7 receptor; 0.3 μM compound, ""+"" symbols",> 76%
CCOc1cccc(C(=O)Nc2cccc3c(=O)n(C(C)CO)ccc23)c1 (stereo not shown) [Compound 93],inhibition at 0.1 µM,P2X7 receptor; 0.1 μM compound (symbols *),0 to 25%
CS(=O)(=O)c1ccc(CC(=O)Nc2cccc3c(=O)n(CCO)ccc23)cc1 [Compound 72],inhibition at 0.3 µM,P2X7 receptor; 0.3 μM compound (symbols +),0 to 25%
C[C@@H](C(N)=O)n1ccc2c(NC(=O)Cc3ccc(Cl)cc3F)cccc2c1=O [Compound 350],inhibition at 0.3 µM,"P2X7 receptor; 0.3 μM compound, ""+"" symbols",> 76%
"C[C@H](C(=O)Nc1cccc2c(=O)n(C(C(N)=O)c3ccc(Cl)cc3)ccc12)c1ccc(Cl)cc1 (stereo partly drawn) [Compound 315, (S)—N-{2-[Carbamoyl-(4-chloro-phenyl)-methyl]-1-oxo-1,2-dihydro-isoquinolin-5-yl}-2-(4-chloro-phenyl)-propionamide]",inhibition at 0.3 µM,"P2X7 receptor; 0.3 μM compound, ""+"" symbols",51 to 75%
O=C(Cc1cccc(C(F)(F)F)c1F)Nc1c(Cl)ccc2c(=O)n(CCO)ccc12 [Compound 387],inhibition at 0.3 µM,"P2X7 receptor; 0.3 μM compound, ""+"" symbols",> 76%
CC(O)Cn1ccc2c(NC(=O)c3cc4cc(Cl)ccc4o3)cccc2c1=O (stereo not shown) [Compound 181],inhibition at 0.1 µM,P2X7 receptor; 0.1 μM compound (symbols *),0 to 25%
CCOc1ccc(C(=O)Nc2cccc3c(=O)n(CC(C)O)ccc23)c(O)c1 (stereo not shown) [Compound 124],inhibition at 0.1 µM,P2X7 receptor; 0.1 μM compound (symbols *),0 to 25%
C[C@H](C(N)=O)n1ccc2c(NC(=O)C(C)(C)c3ccc(Cl)cc3)cccc2c1=O [Compound 264],inhibition at 0.3 µM,"P2X7 receptor; 0.3 μM compound, ""+"" symbols",26 to 50%
same,IC50,P2X7 receptor,443 nM
Cc1ccccc1C(=O)Nc1cccc2c(=O)n(CC(C)(C)O)ccc12 [Compound 200],inhibition at 0.1 µM,"P2X7 receptor; 0.1 μM compound, ""*"" symbols",0 to 25%
Cc1ccc(C(=O)Nc2cccc3c(=O)n(CC(C)(C)O)ccc23)cc1Cl [Compound 220],inhibition at 0.1 µM,"P2X7 receptor; 0.1 μM compound, ""*"" symbols",26 to 50%
NCC(CCl)Cn1ccc2c(NC(=O)Cc3ccc(Cl)c(Cl)c3)cccc2c1=O (stereo not shown) [Compound 259],inhibition at 0.3 µM,"P2X7 receptor; 0.3 μM compound, ""+"" symbols",51 to 75%
Cc1ccccc1CCC(=O)Nc1cccc2c(=O)n(CC(C)O)ccc12 (stereo not shown) [Compound 126],inhibition at 0.1 µM,P2X7 receptor; 0.1 μM compound (symbols *),26 to 50%
O=C(CCCc1ccccc1)Nc1cccc2c(=O)n(CC3(O)CCCCC3)ccc12 [Compound 36],inhibition at 0.3 µM,P2X7 receptor; 0.3 μM compound (symbols +),26 to 50%
Cc1cc(C(=O)Nc2cccc3c(=O)n(CC4(O)CCCCC4)ccc23)ccc1F [Compound 48],inhibition at 0.3 µM,P2X7 receptor; 0.3 μM compound (symbols +),0 to 25%
C[C@H](C(N)=O)n1ccc2c(NC(=O)Cc3ccccc3F)cccc2c1=O [Compound 294],inhibition at 0.3 µM,"P2X7 receptor; 0.3 μM compound, ""+"" symbols",26 to 50%
CC(C)(O)Cn1ccc2c(NC(=O)Cc3ccc4c(c3)OCO4)cccc2c1=O [Compound 218],inhibition at 0.1 µM,"P2X7 receptor; 0.1 μM compound, ""*"" symbols",0 to 25%
CC(CO)n1ccc2c(NC(=O)c3ccc4c(c3)OCCCO4)cccc2c1=O (stereo not shown) [Compound 117],inhibition at 0.1 µM,P2X7 receptor; 0.1 μM compound (symbols *),0 to 25%
CC(C(=O)Nc1cccc2c(=O)n(CCO)ccc12)c1ccc(Cl)cc1 (stereo not shown) [Compound 244],inhibition at 0.3 µM,"P2X7 receptor; 0.3 μM compound, ""+"" symbols",26 to 50%
"CNCCn1ccc2c(NC(=O)Cc3ccc(Cl)c(C(F)(F)F)c3)cccc2c1=O [Compound 235, 2-(4-Chloro-3-trifluoromethyl-phenyl)-N-[2-(2-methylamino-ethyl)-1-oxo-1,2-dihydro-isoquinolin-5-yl]-acetamide]",inhibition at 0.3 µM,"P2X7 receptor; 0.3 μM compound, ""+"" symbols",> 76%
CNCCn1ccc2c(NC(=O)Cc3ccc(Cl)c(Cl)c3)cccc2c1=O [Compound 234],inhibition at 0.3 µM,"P2X7 receptor; 0.3 μM compound, ""+"" symbols",51 to 75%
C[C@H](CO)n1ccc2c(NC(=O)Cc3ccc(F)c(Cl)c3)cccc2c1=O [Compound 329],inhibition at 0.3 µM,"P2X7 receptor; 0.3 μM compound, ""+"" symbols",51 to 75%
CC(C(=O)Nc1cccc2c(=O)n([C@H](C)C(N)=O)ccc12)c1ccc(F)cc1 (stereo partly shown) [Compound 299],inhibition at 0.3 µM,"P2X7 receptor; 0.3 μM compound, ""+"" symbols",> 76%
CC(C)(O)Cn1ccc2c(NC(=O)Cc3ccccc3Cl)cccc2c1=O [Compound 208],inhibition at 0.1 µM,"P2X7 receptor; 0.1 μM compound, ""*"" symbols",0 to 25%
CC(C(=O)Nc1cccc2c(=O)n(C(CO)CO)ccc12)c1ccc(Cl)cc1 (stereo not shown) [Compound 231],inhibition at 0.3 µM,"P2X7 receptor; 0.3 μM compound, ""+"" symbols",26 to 50%
COc1cc(CC(=O)Nc2cccc3c(=O)n(C(C)CO)ccc23)cc(OC)c1 (stereo not shown) [Compound 114],inhibition at 0.1 µM,P2X7 receptor; 0.1 μM compound (symbols *),0 to 25%
COc1ccc(C(=O)Nc2cccc3c(=O)n(CC(C)(C)O)ccc23)cc1C [Compound 227],inhibition at 0.1 µM,"P2X7 receptor; 0.1 μM compound, ""*"" symbols",0 to 25%
O=C(Nc1cccc2c(=O)n(CC3(O)CCCCC3)ccc12)c1ccc(-c2ccccc2)cc1 [Compound 22],inhibition at 0.1 µM,P2X7 receptor; 0.1 μM compound (symbols *),0 to 25%
Cc1cc(Cl)ccc1C(=O)Nc1cccc2c(=O)n(CC(C)O)ccc12 (stereo not shown) [Compound 169],inhibition at 0.1 µM,P2X7 receptor; 0.1 μM compound (symbols *),0 to 25%
COc1c(C)cc(C(=O)Nc2cccc3c(=O)n(CC(C)O)ccc23)cc1C (stereo not shown) [Compound 167],inhibition at 0.1 µM,P2X7 receptor; 0.1 μM compound (symbols *),0 to 25%
O=C(Nc1cccc2c(=O)n(CC3(O)CCCCC3)ccc12)c1cc2ccccc2o1 [Compound 37],inhibition at 0.3 µM,P2X7 receptor; 0.3 μM compound (symbols +),0 to 25%
CC(C)(O)Cn1ccc2c(NC(=O)c3cc(Cl)cc(Cl)c3)cccc2c1=O [Compound 203],inhibition at 0.1 µM,"P2X7 receptor; 0.1 μM compound, ""*"" symbols",0 to 25%
Cc1c(Cl)cccc1C(=O)Nc1cccc2c(=O)n(C(C)CO)ccc12 (stereo not shown) [Compound 118],inhibition at 0.1 µM,P2X7 receptor; 0.1 μM compound (symbols *),26 to 50%
Cc1cc(C(=O)Nc2cccc3c(=O)n(CC(C)O)ccc23)ccc1Cl (stereo not shown) [Compound 135],inhibition at 0.1 µM,P2X7 receptor; 0.1 μM compound (symbols *),0 to 25%
C[C@@H](C(N)=O)n1ccc2c(NC(=O)Cc3ccc(F)c(C(F)(F)F)c3)cccc2c1=O [Compound 348],inhibition at 0.3 µM,"P2X7 receptor; 0.3 μM compound, ""+"" symbols",> 76%
